# Experimental data from PMC12595484, “Optimizing multifunctional fluorescent ligands for intracellular labeling” (Proceedings of the National Academy of Sciences of the …, 2025).
# System: U2OS cells expressing HaloTag–H2B
# Test: Dye loading kinetics
# Format: cell-based
# Details: 200 nM
# Procedure: U2OS cell culture, labeling, and fluorescence microscopy. U2OS cells (ATCC) were cultured in Dulbecco's modified Eagle medium (DMEM, phenol red-free; Life Technologies) supplemented with 10% (v/v) fetal bovine serum (FBS, Life Technologies), 1 mM GlutaMAX (Life Technologies) and maintained at 37 °C in a humidified 5% (v/v) CO2 environment. These cell lines undergo regular mycoplasma testing by the Janelia Cell Culture Facility. U2OS cells stably expressing an integrated HaloTag–histone H2B fusion protein (U2OS.H2B.HaloTag) were used for nuclear imaging and imaged 18–24 h post-plating. […]
# Fixed cells were then washed
# 3× in 1× PBS and incubated with Hoechst 33342 (5µg/mL) for 15 min at 22 °C as a nuclear counterstain. Airyscan imaging was performed on a Zeiss LSM 980 with Airyscan 2 confocal microscope using a Plan APO 63×/1.4 oil DIC M27 objective. The same acquisition settings were used for all constructs labeled with 13HTL–16HTL. These single plane images were bulk processed in ZEN Blue (Zeiss) with automatic Airyscan settings.
# Dye loading kinetics. Live U2OS.H2B.HaloTag stable cells were labeled over a time course of 0–4 h with 200 nM of biotin-JF549-HaloTag ligand (13HTL), biotin-JF608-HaloTag ligand (14HTL), biotin-JF646-HaloTag ligand (15HTL), or biotin-JF635-HaloTag ligand (16HTL) at 37 °C. Cells were […]
# then washed 3× with dye-free media, fixed with 4% paraformaldehyde in 0.1 M phosphate buffer, pH 7.4 for 15 min at 37 °C. Confocal imaging was performed on a Leica SP8 with an HC PL APO CS2 20×/0.75 immersion objective using the tunable white light laser ( WLL) to excite dyes at their λabs in constant power mode. Fluorescence was quantified as the average integrated density of background corrected nuclear signals from confocal image stack projections analyzed in Fiji;14 n = 100 nuclear signals per compound. […]
# (IB) consisting of KCl (0.18 M), ethylene glycol-bis(β-aminoethyl ether)-N,N,N′,N′-tetraacetic acid (EGTA; 1 mM), 3-(N-morpholino)propanesulfonic acid (MOPS; 5 mM); the pH was adjusted to pH = 7.35 using KOH(aq).15 StrepTactin Microbeads (IBA Lifesciences, 6-5510-050) were used as capture reagents as these beads had lowest amount of background observed in our hands. […]
# The post-bead supernatant and wash volumes were pooled and spun at 15,000 g for 12 min. […] The affinity capture pulldown efficiency was monitored using in-gel fluorescence. The msGFP signal from HaloTag-TEV-4×GS-msGFP-mito after cell lysis and SDS-PAGE was analyzed, in-gel, using a Bio-Rad Chemidoc MP imager (Bio-Rad) through GFP fluorescence excitation and emission filters. Data were quantified by densitometry using Fiji.14 Capture efficiency was […]
SMILES,intracellular labeling over 4 h,time to maximal intensity
"O=C(CCCCC1SCC2NC(=O)NC21)NCCOCCOCCNC(=O)C1C[N+](=c2ccc3c(-c4cc(C(=O)NCCOCCOCCCCCCCl)ccc4C(=O)[O-])c4ccc(N5CCC5)cc4oc-3c2)C1 (stereo not shown) [13HTL, biotin–JF549–HaloTag ligand]",negligible intracellular labeling,
"CC1(C)C2=CC(=[N+]3CC(C(=O)NCCOCCOCCNC(=O)CCCC[C@@H]4SC[C@@H]5NC(=O)N[C@@H]54)C3)C=CC2=C(c2cc(C(=O)NCCOCCOCCCCCCCl)ccc2C(=O)[O-])c2ccc(N3CCC3)cc21 (stereo partly shown) [14HTL, biotin–JF608–HaloTag ligand]",,4 h
"C[Si]1(C)C2=CC(=[N+]3CC(C(=O)NCCOCCOCCNC(=O)CCCC[C@@H]4SC[C@@H]5NC(=O)N[C@@H]54)C3)C=CC2=C(c2cc(C(=O)NCCOCCOCCCCCCCl)ccc2C(=O)[O-])c2ccc(N3CCC3)cc21 (stereo partly shown) [15HTL, biotin–JF646–HaloTag ligand]",,1 h
"C[Si]1(C)C2=CC(=[N+]3CC(F)(C(=O)NCCOCCOCCNC(=O)CCCC[C@@H]4SC[C@@H]5NC(=O)N[C@@H]54)C3)C=CC2=C(c2cc(C(=O)NCCOCCOCCCCCCCl)ccc2C(=O)[O-])c2ccc(N3CC(F)C3)cc21 (stereo partly shown) [16HTL, biotin–JF635–HaloTag ligand]",,1 h
